Measured values reported in ChEMBL document CHEMBL3885881, “DrugMatrix”.

Species: Rattus norvegicus
Assay: DrugMatrix - Regimen: Daily Repeat
Type: toxicity, organism-based, Sprague-Dawley
Set-up: regimen Daily Repeat, gender Male, age 6-8 weeks
Conditions: in vivo, po, 17 mg/kg, route oral GAVAGE, dose level Low, vehicle 100 % SALINE; for ABSOLUTE BASOPHIL / ABSOLUTE EOSINOPHIL / ABSOLUTE LYMPHOCYTE / ABSOLUTE MONOCYTE / ABSOLUTE SEGMENTED NEUTROPHIL / BASOPHIL / EOSINOPHIL / ERYTHROCYTE COUNT / HEMATOCRIT / HEMOGLOBIN / LEUKOCYTE COUNT / LYMPHOCYTE / MEAN CORPUSCULAR HEMOGLOBIN / MEAN CORPUSCULAR HEMOGLOBIN CONCENTRATION / MEAN CORPUSCULAR VOLUME / MONOCYTE / NEUTROPHIL / NUCLEATED RED BLOOD CELLS / PLATELET COUNT: tissue Blood; for ALANINE AMINOTRANSFERASE / ALBUMIN / ALKALINE PHOSPHATASE / ASPARTATE AMINOTRANSFERASE / BLOOD UREA NITROGEN / CARBON DIOXIDE / CHLORIDE / CHOLESTEROL / CREATINE PHOSPHOKINASE / CREATININE / GLUCOSE / LACTATE DEHYDROGENASE / LIPASE / PHOSPHORUS / POTASSIUM / SODIUM / TOTAL BILIRUBIN / TOTAL PROTEIN / URIC ACID: tissue Plasma

## O=P1(NCCCl)OCCCN1CCCl (stereo unspecified) [IFOSFAMIDE]
72 h, time 3 day
  ABSOLUTE BASOPHIL: 0 CELLS/uL
  ABSOLUTE EOSINOPHIL: 0 CELLS/uL
  ABSOLUTE LYMPHOCYTE: 7711.33 CELLS/uL
  ABSOLUTE MONOCYTE: 107 CELLS/uL
  ABSOLUTE SEGMENTED NEUTROPHIL: 448.33 CELLS/uL
  BASOPHIL: 0%
  EOSINOPHIL: 0%
  ERYTHROCYTE COUNT: 6.17 x10E6/uL
  HEMATOCRIT: 39.13%
  HEMOGLOBIN: 15.1 G/DL
  LEUKOCYTE COUNT: 8.27 x10E3/uL
  LYMPHOCYTE: 93.33%
  MEAN CORPUSCULAR HEMOGLOBIN: 24.47 pg
  MEAN CORPUSCULAR HEMOGLOBIN CONCENTRATION: 38.6 G/DL
  MEAN CORPUSCULAR VOLUME: 63.47 fL
  MONOCYTE: 1.33%
  NEUTROPHIL: 5.33%
  NUCLEATED RED BLOOD CELLS: 0 /100WBC
  PLATELET COUNT: 648 x10E3/uL
  ALANINE AMINOTRANSFERASE: 47.33 u/L
  ALBUMIN: 4.43 G/DL
  ALKALINE PHOSPHATASE: 256.67 u/L
  ASPARTATE AMINOTRANSFERASE: 80.33 u/L
  BLOOD UREA NITROGEN: 15 mg/dL
  CARBON DIOXIDE: 38.67 mmol/L
  CHLORIDE: 95.67 MEQ/L
  CHOLESTEROL: 85 mg/dL
  CREATINE PHOSPHOKINASE: 300 u/L
  CREATININE: 0.31 mg/dL
  GLUCOSE: 148.67 mg/dL
  LACTATE DEHYDROGENASE: 171.67 u/L
  LIPASE: 11.33 u/L
  PHOSPHORUS: 11.57 mg/dL
  POTASSIUM: 6.47 MEQ/L
  SODIUM: 144.97 MEQ/L
  TOTAL BILIRUBIN: 0.2 mg/dL
  TOTAL PROTEIN: 6.5 G/DL
  URIC ACID: 1.23 mg/dL
120 h, time 5 day
  ABSOLUTE BASOPHIL: 0 CELLS/uL
  ABSOLUTE EOSINOPHIL: 0 CELLS/uL
  ABSOLUTE LYMPHOCYTE: 4979.67 CELLS/uL
  ABSOLUTE MONOCYTE: 84.33 CELLS/uL
  ABSOLUTE SEGMENTED NEUTROPHIL: 269.33 CELLS/uL
  BASOPHIL: 0%
  EOSINOPHIL: 0%
  ERYTHROCYTE COUNT: 5.71 x10E6/uL
  HEMATOCRIT: 35.77%
  HEMOGLOBIN: 13.23 G/DL
  LEUKOCYTE COUNT: 5.33 x10E3/uL
  LYMPHOCYTE: 93%
  MEAN CORPUSCULAR HEMOGLOBIN: 23.13 pg
  MEAN CORPUSCULAR HEMOGLOBIN CONCENTRATION: 37.2 G/DL
  MEAN CORPUSCULAR VOLUME: 62.3 fL
  MONOCYTE: 1.67%
  NEUTROPHIL: 5.33%
  NUCLEATED RED BLOOD CELLS: 0 /100WBC
  PLATELET COUNT: 184 x10E3/uL
  ALANINE AMINOTRANSFERASE: 92.33 u/L
  ALBUMIN: 4.3 G/DL
  ALKALINE PHOSPHATASE: 295.33 u/L
  ASPARTATE AMINOTRANSFERASE: 158.33 u/L
  BLOOD UREA NITROGEN: 17 mg/dL
  CARBON DIOXIDE: 38 mmol/L
  CHLORIDE: 94 MEQ/L
  CHOLESTEROL: 79.67 mg/dL
  CREATINE PHOSPHOKINASE: 366 u/L
  CREATININE: 0.26 mg/dL
  GLUCOSE: 149.67 mg/dL
  LACTATE DEHYDROGENASE: 519 u/L
  LIPASE: 9.67 u/L
  PHOSPHORUS: 12.83 mg/dL
  POTASSIUM: 7.12 MEQ/L
  SODIUM: 144.83 MEQ/L
  TOTAL BILIRUBIN: 0.17 mg/dL
  TOTAL PROTEIN: 6.57 G/DL
  URIC ACID: 1.43 mg/dL
